Data: PMC7094737 (Journal of Molecular Biology, 2008)
Numbering of substitutions follows the chain as printed.

Key:
MDO2 [1] = target: T1, MDO2 (Homo sapiens, UniProt A1Z1Q3); test: ADPR-1″P hydrolysis; format: biochemical; settings: by MDO2; Fig. 2, TLC
T1 sequence (A1Z1Q3 1-243): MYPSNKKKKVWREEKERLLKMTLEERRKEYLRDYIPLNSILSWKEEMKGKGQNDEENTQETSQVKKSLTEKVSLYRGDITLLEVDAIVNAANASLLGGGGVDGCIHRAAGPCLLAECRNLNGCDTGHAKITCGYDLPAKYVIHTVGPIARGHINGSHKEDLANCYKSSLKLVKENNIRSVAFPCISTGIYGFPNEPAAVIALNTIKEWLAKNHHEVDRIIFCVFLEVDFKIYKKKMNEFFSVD

GDAP2 [2] = target: T2, GDAP2 (Homo sapiens, UniProt Q9NXN4); test: ADPR-1″P hydrolysis; format: biochemical; settings: by GDAP2; Fig. 2, TLC
T2 sequence (Q9NXN4 1-231 isoform Q9NXN4-2): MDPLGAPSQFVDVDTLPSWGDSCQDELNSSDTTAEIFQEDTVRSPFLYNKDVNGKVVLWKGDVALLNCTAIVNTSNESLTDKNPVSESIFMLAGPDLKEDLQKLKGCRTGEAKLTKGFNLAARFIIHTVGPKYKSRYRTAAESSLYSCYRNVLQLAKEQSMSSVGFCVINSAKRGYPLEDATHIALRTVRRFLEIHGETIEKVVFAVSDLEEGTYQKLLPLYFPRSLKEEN

MDO1 [3] = target: T3, MDO1 (Homo sapiens, UniProt Q9BQ69); test: ADPR-1″P hydrolysis; format: biochemical; settings: by MDO1; Fig. 2, TLC
T3 sequence (Q9BQ69 83-325): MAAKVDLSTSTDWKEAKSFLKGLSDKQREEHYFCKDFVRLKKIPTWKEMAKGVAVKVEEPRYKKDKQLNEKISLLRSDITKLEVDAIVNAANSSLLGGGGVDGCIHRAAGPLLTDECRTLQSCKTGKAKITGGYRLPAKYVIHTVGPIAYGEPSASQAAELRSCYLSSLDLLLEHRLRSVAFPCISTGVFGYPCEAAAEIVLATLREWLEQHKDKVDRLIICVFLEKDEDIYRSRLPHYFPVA

SFV macro (nsP3) [4] = target: T4, SFV macro (nsP3) (Semliki forest virus, UniProt P08411); test: ADPR-1″P hydrolysis; format: biochemical; settings: by SFV nsP3 (167-aa and 328-aa similar); Fig. 2, TLC
T4 sequence (P08411 1337-1503 limits assumed): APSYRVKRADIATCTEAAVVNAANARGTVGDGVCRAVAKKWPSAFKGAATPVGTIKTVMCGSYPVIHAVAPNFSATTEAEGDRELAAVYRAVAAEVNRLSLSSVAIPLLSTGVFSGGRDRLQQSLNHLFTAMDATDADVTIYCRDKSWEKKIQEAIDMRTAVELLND

macro domains = test: Filter binding with radioactive NAD+ alone
HEV macro [5] = target: T5, HEV macro (Hepatitis E virus genotype 1, UniProt P29324); test: Competition for poly; format: binding; settings: data not shown
T5 sequence (P29324 775-960): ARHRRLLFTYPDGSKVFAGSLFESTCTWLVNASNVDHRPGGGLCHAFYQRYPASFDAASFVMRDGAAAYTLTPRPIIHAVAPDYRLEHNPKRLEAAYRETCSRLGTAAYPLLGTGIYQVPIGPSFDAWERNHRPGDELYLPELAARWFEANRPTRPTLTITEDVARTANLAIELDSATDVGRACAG

MDO1 [6] = target: T3, MDO1; format: binding; settings: MDO1, 500 mM NaCl, data not shown
MDO1 [7] = target: T3, MDO1; test: Competition for poly; format: binding; settings: data not shown
SFV macro = target: T6, SFV macro (Semliki forest virus, UniProt P08411); test: Competition for poly; format: binding; settings: data not shown
T6 sequence (P08411 1337-1495 limits assumed): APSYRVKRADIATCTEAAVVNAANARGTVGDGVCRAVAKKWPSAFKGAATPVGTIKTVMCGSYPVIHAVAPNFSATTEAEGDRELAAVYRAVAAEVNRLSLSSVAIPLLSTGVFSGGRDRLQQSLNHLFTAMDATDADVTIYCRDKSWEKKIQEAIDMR

GDAP2 [8] = target: T2, GDAP2; test: [32P]poly; format: binding; settings: to GDAP2; Fig. 3c
MDO2 [9] = target: T1, MDO2; test: [32P]poly; format: binding; settings: to MDO2; Fig. 3c
MDO1 G182Y + G270Y = target: T7, MDO1 G182Y + G270Y (Homo sapiens, UniProt Q9BQ69, G182Y/G270Y); format: binding; settings: filter washed with 1 M NaCl, not shown
T7 sequence (Q9BQ69 83-325 G182Y/G270Y): T3 sequence (Q9BQ69 83-325) with G100Y, G188Y

MDO1 [10] = target: T3, MDO1; format: binding; settings: to MDO1; Fig. 3b
SFV macro (nsP3) [11] = target: T4, SFV macro (nsP3); format: binding; settings: to SFV macro; Fig. 3b
Poa1p = target: T8, Poa1p (Saccharomyces cerevisiae, UniProt P38218, S2A); format: binding; settings: to Poa1p; Fig. 3b
T8 sequence (P38218 1-177 S2A): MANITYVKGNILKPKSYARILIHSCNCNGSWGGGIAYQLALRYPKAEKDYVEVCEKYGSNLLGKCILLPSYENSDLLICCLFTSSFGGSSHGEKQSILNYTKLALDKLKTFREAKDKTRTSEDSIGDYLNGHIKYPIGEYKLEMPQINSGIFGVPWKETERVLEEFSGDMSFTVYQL

MDO2 [12] = target: T1, MDO2; format: binding; settings: to MDO2; Fig. 3b
macro proteins = format: biochemical
HEV macro [13] = target: T5, HEV macro; format: binding; settings: to HEV macro; Fig. 3b
GDAP2 [14] = target: T2, GDAP2; format: binding; settings: to GDAP2
[15] = monomeric ADP-ribose 1500-fold excess
[16] = molar excess of poly(A) ∼ 400-fold

Nc1ncnc2c1ncn2[C@@H]1O[C@H](COP(=O)(O)OP(=O)(O)OC[C@H]2O[C@H](OP(=O)(O)O)[C@H](O)[C@@H]2O)[C@@H](O)[C@H]1O [ADPR-1″P, ADP-ribose-1″ phosphate]
ADPR-1″P hydrolysis (in words) (MDO2 [1]): equally efficiently as yeast Poa1p | ADPR-1″P hydrolysis (in words) (GDAP2 [2]): inactive | ADPR-1″P hydrolysis (in words) (MDO1 [3]): equally efficiently as yeast Poa1p | ADPR-1″P hydrolysis (in words) (SFV macro (nsP3) [4]): only a minor activity

NC(=O)c1ccc[n+]([C@@H]2O[C@H](COP(=O)([O-])OP(=O)(O)OC[C@H]3O[C@@H](n4cnc5c(N)ncnc54)[C@H](O)[C@@H]3O)[C@@H](O)[C@H]2O)c1 [NAD ^+]
radioactive signal on filter-bound macro domains (macro domains): no radioactive signal

ADP-ribose
competition for the binding of poly(ADP-ribose) (HEV macro [5]; [15]): no competition | dissociation constant in high-salt buffer versus standard conditions (MDO1 [6]): approximately twofold | competition for the binding of poly(ADP-ribose) (MDO1 [7]; [15]): no competition | competition for the binding of poly(ADP-ribose) (SFV macro; [15]): no competition

poly(A)
competition for the binding of poly(ADP-ribose) (HEV macro [5]; [16]): no competition | competition for the binding of poly(ADP-ribose) (MDO1 [7]; [16]): no competition | poly(A) binding (in words) (GDAP2 [8]): bound poly(A) | poly(A) binding (in words) (MDO2 [9]): did not bind poly(A) | competition for the binding of poly(ADP-ribose) (SFV macro; [16]): no competition

poly(ADP-ribose)
poly(ADP-ribose) binding after stringent wash (MDO1 G182Y + G270Y): did not have an effect on poly(ADP-ribose) binding | poly(ADP-ribose) binding (in words) (MDO1 [10]): bound poly(ADP-ribose) | poly(ADP-ribose) binding (in words) (SFV macro (nsP3) [11]): bound poly(ADP-ribose) effectively | poly(ADP-ribose) binding (in words) (Poa1p): did not show effective binding | poly(ADP-ribose) binding (in words) (MDO2 [12]): did not show effective binding | poly(ADP-ribose) hydrolysis activity (macro proteins): None of the macro proteins degraded poly(ADP-ribose) | poly(ADP-ribose) binding (in words) (HEV macro [13]): bound poly(ADP-ribose) effectively | poly(ADP-ribose) binding (in words) (GDAP2 [14]): inefficient
